# Reference: EP4792822A1, “USE OF PEPTIDE AMIDE COMPOUND IN PREPARATION OF DRUG FOR […] AND VOMITING” (Haisco Pharmaceutical Group Co., Ltd., priority 2023, dated 2025)
# Tested on: subjects undergoing elective laparoscopic abdominal or gynaecological surgery under general anaesthesia
# Assay: Example 3: placebo-controlled dose study of compound 1 injection for the prevention of postoperation nausea and vomiting
# Assay type: in vivo, patients
# Details: for Complete response (CR) within 24 h after surgery: single intravenous bolus; for Significant nausea within 24 h after surgery: VAS score ≥ 4 cm; for subject satisfaction scores for PONV / time to the first occurrence of emesis (vomiting or retching) or administration of rescue treatment within 24 h after surgery: mean ± standard deviation
# Procedure: Study period: Treatment duration: 24 h after surgery; Follow-up duration: 48 h after surgery
# Protocol: This study was a multicentre, randomised, double-blind, placebo-controlled study. About 200 subjects undergoing elective laparoscopic abdominal or gynaecological surgery under general anaesthesia were planned to be enrolled and randomised at a 1 : 1 : 1 : 1 ratio into the compound 1-60 µg group (50 subjects), the compound 1-120 µg group (50 subjects), the compound 1-180 µg group (50 subjects), and the placebo group (50 subjects).
# A single dose of the study drug was administered within 15 min before the end of surgery. The dosing regimen is as follows: Compound 1-60 µg group: A single dose of 60 µg of compound 1 injection was administered within 15 min before the end of surgery, via intravenous bolus injection, with an intravenous bolus injection time of not less than 30 s.
# Compound 1-120 µg group: A single dose of 120 µg of compound 1 injection was administered within 15 min before the end of surgery, via intravenous bolus injection, with an intravenous bolus injection time of not less than 30 s.
# Compound 1-180 µg group: A single dose of 180 µg of compound 1 injection was administered within 15 min before the end of surgery, via intravenous bolus injection, with an intravenous bolus injection time of not less than 30 s.
# Placebo group: A single dose of placebo was administered within 15 min before the end of surgery, via intravenous bolus injection, with an intravenous bolus injection time of not less than 30 s.
# Primary efficacy endpoint: Complete response (CR) rate at 24 h after surgery (CR is defined as no vomiting or retching and no use of rescue medication within 24 h after surgery).
# Secondary efficacy endpoints: Proportion of subjects experiencing nausea after surgery; proportion of subjects experiencing significant nausea after surgery (significant nausea is defined as a VAS score ≥ 4 cm); proportion of subjects experiencing vomiting after surgery (vomiting [even with expulsion of a minimal amount of gastric contents] or retching [muscular movement of vomiting without expulsion of gastric contents]); proportion of subjects using rescue medication after surgery; time to the first occurrence of emesis (vomiting or retching) or administration of rescue treatment within 24 h after surgery, whichever occurs first; cumulative dosage of analgesic agents within 24 h after surgery; and subject and investigator satisfaction scores for PONV.
# Safety endpoints: Incidence and severity of adverse events; and vital signs, 12-lead ECG, physical examination, and laboratory examinations.
# Subjects who met all inclusion criteria and none of the exclusion criteria received a single dose of compound 1 injection or placebo within 15 min before the end of surgery (defined as the completion of the last suture of the wound).
# The use of any antiemetic agents or agents with antiemetic effects, other than the study drug and rescue medications specified in the protocol, was prohibited from 24 h before the start of surgery (defined as the start of skin incision) to 24 h after the end of surgery. Prophylactic antiemetic treatment was prohibited.
# Within 24 h after the end of surgery, if the subject experienced ≥ 1 episode of vomiting, retching, or nausea and complained of requiring antiemetic treatment, the subject received rescue antiemetic agents specified in the protocol after assessment by the investigator (tropisetron was the preferred rescue antiemetic agent; it was recommended that an initial intravenous dose of 2.5 mg be administered, followed by additional doses as needed, not to exceed 10 mg within 24 h). If tropisetron was insufficiently effective, other agents were used by the investigator in accordance with routine clinical practice.
# Within 30 min after the end of surgery, a PCA pump containing morphine hydrochloride injection was initiated. Subjects self-administered analgesia by pressing the PCA pump when experiencing pain. […]
# [1] = Example 3, compared with placebo
compound,measurement,setting,value
"CC(=O)N1CC2(CCN(C(=O)[C@@H](CCCCN)NC(=O)[C@@H](CC(C)C)NC(=O)[C@@H](Cc3ccccc3)NC(=O)[C@H](N)Cc3ccccc3)CC2)C1 [Compound 1, (2R)-N-[(1R)-1-(2-acetyl-2,7-diazaspiro[3.5]nonane-7-carbonyl)-5-amino-pentyl]-2-[[(2R)-2-[[(2R)-2-amino-3-phenyl-propionyl]amino]-3-phenylpropionyl]amino]-4-methyl-pentanamide]",investigator satisfaction scores for PONV,60 µg group,8.9 ± 1.84
same,Nausea within 24 h after surgery,60 µg group (N = 49),18 (36.7) n (%)
same,Use of rescue medication within 24 h after surgery,60 µg group (N = 49),7 (14.3) n (%)
same,Vomiting within 24 h after surgery,60 µg group (N = 49),12 (24.5) n (%)
same,Complete response (CR) within 24 h after surgery,60 µg group (N = 49),36 (73.5) n (%)
same,Significant nausea within 24 h after surgery,60 µg group (N = 49),9 (18.4) n (%)
same,subject satisfaction scores for PONV,60 µg group,9.0 ± 1.89
same,time to the first occurrence of emesis (vomiting or retching) or administration of rescue treatment within 24 h after surgery,60 µg group,18.3109 ± 9.6700 h
same,"CR rate at 24 h after surgery, comparison among dose groups",120 µg group,highest CR rate
same,investigator satisfaction scores for PONV,120 µg group,8.9 ± 1.71
same,Nausea within 24 h after surgery,120 µg group (N = 49),11 (22.4) n (%)
same,Use of rescue medication within 24 h after surgery,120 µg group (N = 49),6 (12.2) n (%)
same,Vomiting within 24 h after surgery,120 µg group (N = 49),8 (16.3) n (%)
same,Complete response (CR) within 24 h after surgery,120 µg group (N = 49),40 (81.6) n (%)
same,Significant nausea within 24 h after surgery,120 µg group (N = 49),7 (14.3) n (%)
same,subject satisfaction scores for PONV,120 µg group,9.1 ± 1.52
same,time to the first occurrence of emesis (vomiting or retching) or administration of rescue treatment within 24 h after surgery,120 µg group,20.1119 ± 8.4192 h
same,investigator satisfaction scores for PONV,180 µg group,9.0 ± 1.39
same,Nausea within 24 h after surgery,180 µg group (N = 50),16 (32.0) n (%)
same,Use of rescue medication within 24 h after surgery,180 µg group (N = 50),8 (16.0) n (%)
same,Vomiting within 24 h after surgery,180 µg group (N = 50),9 (18.0) n (%)
same,Complete response (CR) within 24 h after surgery,180 µg group (N = 50),39 (78.0) n (%)
same,Significant nausea within 24 h after surgery,180 µg group (N = 50),11 (22.0) n (%)
same,subject satisfaction scores for PONV,180 µg group,9.0 ± 1.65
same,time to the first occurrence of emesis (vomiting or retching) or administration of rescue treatment within 24 h after surgery,180 µg group,19.7203 ± 8.7225 h
same,TEAEs leading to study withdrawal or death,Example 3,no TEAEs leading to study withdrawal or death were observed
same,TESAEs (treatment-emergent serious adverse events),Example 3,No TESAEs (treatment-emergent serious adverse events) occurred
same,overall safety,Example 3,good overall safety
same,severity of TEAEs and ADRs,"Example 3, all TEAEs and ADRs",Grade 1-2
same,incidence of ADRs,[1],slightly higher than that in the placebo group
same,overall incidence of TEAEs,[1],lower than that in the placebo group
same,"proportion of subjects experiencing nausea, severe nausea, vomiting, and using rescue medication within 24 h after surgery, compared with placebo",each dose group,lower than that in the placebo group
same,"complete response (CR) rate at 24 h after surgery, compared with placebo","each dose group (60, 120, 180 µg), P < 0.05",higher than that in the placebo group
same,"PONV satisfaction scores of investigators, compared with placebo","each dose group, P < 0.05",higher than those in the placebo group
same,"PONV satisfaction scores of subjects, compared with placebo","each dose group, P < 0.05",higher than those in the placebo group
same,"time to the first occurrence of emesis (vomiting or retching) or administration of rescue treatment within 24 h after surgery, compared with placebo","each dose group, P < 0.05",later than that in the placebo group
